# Test results: article PMC11475570, “Impact of Optimized Ku–DNA Binding Inhibitors on the Cellular and In Vivo DNA Damage Response” (Cancers, 2024)
# Experiments:
# Type in all cases: cell-based, Human
# [1] = tested on: A549 cells; assay: γH2AX single-agent DNA damage (Western blot, immunofluorescence); details: Supplemental Figure S6
# Source text: Supplementary Figure S6. GL-3392 single agent effect on DNA damage in NSCLC.
# (A) Western blot analysis from A549 cells nuclear extracts. (B) Densitometric analysis of bands from western blot immunodetection. The original membranes can be found in File S1 (Appendix for Supplementary Figure S6A). (C) γH2AX expression levels dete rmined by Immunofluorescence. IF staining of DAPI nuclear staining (blue) and γH2AX (pS139) (red). Scale bars: 10µm. (D) Quantitation of integrated fluorescence intensity of γH2AX foci represented as the median of 300 nuclei per field. ns: not significant, ****p <0.0001 as calculated by one-way ANOVA with Dunnett’s multiple comparisons test. […]
# [2] = tested on: H23 cells; assay: Clonogenic survival in combination with IR
# Description: (§1) NSCLC cells were seeded at 2 × 10^5 cells per well into 24-well plates and grown as monolayers at 37 °C and 5% CO2 in media one day before Ku-DBi or vehicle treatments. After 2 h, cells were placed on ice for 10 min and kept on ice during irradiation with either 2 or 5 Gy of 160 kVp X-rays using a Precision X-ray machine (North Branford, CT, USA) at a dose rate of 0.687 Gy/min. Radiation dosimetry measurements were performed using a Farmer-type ionization chamber (PTW Model N30013, Freiburg, Germany) in conjunction with a Keithley electrometer (Model K602, Cleveland, OH, USA). After irradiation, cells were incubated for 1 h at 37 °C, trypsinized, replated in 100 mm dishes, and incubated at 37 °C in 5% CO2. After 11 days, cells were carefully washed in PBS before fixing and staining in 0.5% crystal violet (Cat: C581-100, Fisher Scientific, Hampton, NH, USA) with 6% glutaraldehyde (Glutaraldehyde solution, 25%. Cat: O2957-1, Fisher Scientific) in PBS for 1 h at RT. The staining solution was removed, and cells were washed with water and air-dried. For clonogenic survival analysis, colonies containing more than 50 cells were manually counted and normalized to vehicle control conditions to determine surviving fractions.
# [3] = tested on: A549 cells; assay: Clonogenic survival in combination with IR; details: A549, 2 Gy
# Description: as §1
structure (smiles),measurement,setting,value
COc1ccc(-c2ccc(/C=C3\C(=O)N(c4cccc(C(=O)O)c4)c4ccccc43)o2)cc1C(=O)Nc1cccc(OC(F)(F)F)c1 [GL-3392],"Induction of direct DNA damage, single agent",[1],cannot be attributed to induction of direct DNA damage
same,"Sensitivity in combination with IR, clonogenic survival","[2]; ATM-null H23, 2 Gy","minimal, statistically insignificant effect"
same,"Sensitivity in combination with IR, clonogenic survival","[2]; ATM-null H23, 5 Gy",significantly sensitized
same,"Sensitivity in combination with IR, clonogenic survival",[3],increased sensitivity when combined with a 2 Gy radiation dose
